The text below walks through data of ChEMBL document CHEMBL1148604 (J Med Chem, 2006).

≈ marks a conversion by molar mass, not a printed value. Calls of active or inactive are those of the source. No cut-off for these calls is given here. A value given as a limit tells only on which side of the number the result lay.

The subject of experiment [1] is Mycobacterium tuberculosis. Kind of experiment: Inhibitory activity against Mycobacterium tuberculosis H37Rv. The experiment is classed as functional.
The subject of a further experiment is Escherichia coli. The experiment in a line: Inhibitory activity against Escherichia coli ANSI. The class given is functional.
Experiment [2] deals with T1, 3-oxoacyl-[acyl-carrier-protein] synthase 3 (Escherichia coli) (UniProt C3TDZ2).
T1 sequence (whole entry): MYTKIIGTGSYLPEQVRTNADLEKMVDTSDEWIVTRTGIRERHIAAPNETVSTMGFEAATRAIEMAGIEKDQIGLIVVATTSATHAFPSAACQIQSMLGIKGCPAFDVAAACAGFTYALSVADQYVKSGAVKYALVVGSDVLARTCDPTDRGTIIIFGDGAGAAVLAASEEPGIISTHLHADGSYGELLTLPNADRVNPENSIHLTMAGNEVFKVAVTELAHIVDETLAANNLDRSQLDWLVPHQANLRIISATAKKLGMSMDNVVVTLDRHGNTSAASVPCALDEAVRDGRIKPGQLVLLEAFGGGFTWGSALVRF
The experiment in a line: Inhibitory activity against FabH from Escherichia coli ANSI at 100 uM.

Experiment [3] has as its target T2, 3-oxoacyl-[acyl-carrier-protein] synthase 2 (Mycobacterium tuberculosis) (UniProt P9WQD7).
T2 sequence (whole entry): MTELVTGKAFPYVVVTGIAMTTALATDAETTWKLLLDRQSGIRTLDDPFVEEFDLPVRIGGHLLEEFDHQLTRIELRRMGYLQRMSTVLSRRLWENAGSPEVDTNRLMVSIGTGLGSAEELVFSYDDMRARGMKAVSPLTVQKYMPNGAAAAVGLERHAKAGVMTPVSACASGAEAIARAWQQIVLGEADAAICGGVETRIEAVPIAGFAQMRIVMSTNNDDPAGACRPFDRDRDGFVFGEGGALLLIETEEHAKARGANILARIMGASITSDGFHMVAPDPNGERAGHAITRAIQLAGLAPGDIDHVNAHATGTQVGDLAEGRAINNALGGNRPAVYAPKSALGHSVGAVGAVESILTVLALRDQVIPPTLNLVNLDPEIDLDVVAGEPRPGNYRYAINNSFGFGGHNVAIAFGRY
The experiment in a line: Inhibitory activity against KasB from Mycobacterium tuberculosis H37Rv at 100 uM.

The target of experiment [4] is T3, 3-oxoacyl-[acyl-carrier-protein] synthase 1 (Mycobacterium tuberculosis) (UniProt P9WQD9).
T3 sequence (whole entry): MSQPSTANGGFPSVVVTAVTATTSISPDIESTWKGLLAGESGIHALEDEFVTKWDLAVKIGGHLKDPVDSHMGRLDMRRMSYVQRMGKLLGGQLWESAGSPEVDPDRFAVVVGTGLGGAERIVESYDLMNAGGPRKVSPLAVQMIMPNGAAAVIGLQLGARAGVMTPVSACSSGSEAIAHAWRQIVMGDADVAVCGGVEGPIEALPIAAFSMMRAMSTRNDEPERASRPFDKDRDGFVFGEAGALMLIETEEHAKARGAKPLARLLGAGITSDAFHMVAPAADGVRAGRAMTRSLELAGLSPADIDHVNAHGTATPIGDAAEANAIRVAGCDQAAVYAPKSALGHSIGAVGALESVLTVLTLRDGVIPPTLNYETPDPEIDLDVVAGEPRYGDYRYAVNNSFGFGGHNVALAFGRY
The experiment in a line: Inhibitory activity against KasA from Mycobacterium tuberculosis H37Rv at 100 uM.

Experiment [5] addresses T4, Mycobacterial beta-ketoacyl-[acyl-carrier-protein] synthase III (Mycobacterium tuberculosis) (UniProt P9WNG3).
T4 sequence (whole entry): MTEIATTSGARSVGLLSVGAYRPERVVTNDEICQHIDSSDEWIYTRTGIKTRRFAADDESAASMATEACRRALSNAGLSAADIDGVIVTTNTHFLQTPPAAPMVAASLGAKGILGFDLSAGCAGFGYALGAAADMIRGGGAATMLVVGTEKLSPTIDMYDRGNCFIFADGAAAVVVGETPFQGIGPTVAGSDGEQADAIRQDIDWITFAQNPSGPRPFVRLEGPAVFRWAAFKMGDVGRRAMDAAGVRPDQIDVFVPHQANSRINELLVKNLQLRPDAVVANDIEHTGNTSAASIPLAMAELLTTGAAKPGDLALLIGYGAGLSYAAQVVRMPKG
The experiment in a line: Inhibitory activity against FabH from Mycobacterium tuberculosis H37Rv at 100 uM.

In experiment [6] the target is T5, 3-oxoacyl-[acyl-carrier-protein] synthase 1 (Escherichia coli K-12) (UniProt P0A953).
T5 sequence (whole entry): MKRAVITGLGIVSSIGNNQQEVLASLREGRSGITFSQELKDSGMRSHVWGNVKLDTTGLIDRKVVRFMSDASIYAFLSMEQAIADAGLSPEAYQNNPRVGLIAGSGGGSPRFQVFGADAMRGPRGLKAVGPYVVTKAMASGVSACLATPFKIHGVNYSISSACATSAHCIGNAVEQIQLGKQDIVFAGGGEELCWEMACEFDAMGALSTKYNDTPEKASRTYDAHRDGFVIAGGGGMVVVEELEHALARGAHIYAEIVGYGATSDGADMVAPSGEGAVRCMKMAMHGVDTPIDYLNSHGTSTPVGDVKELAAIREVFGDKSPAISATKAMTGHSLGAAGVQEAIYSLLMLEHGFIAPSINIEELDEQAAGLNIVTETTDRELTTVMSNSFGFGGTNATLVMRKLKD
The experiment in a line: Inhibitory activity against FabB from Escherichia coli ANSI at 100 uM.

Experiment [7] concerns the target T6, 3-oxoacyl-[acyl-carrier-protein] synthase 3 (Escherichia coli, UniProt C3TDZ2).
T6 sequence (C3TDZ2 whole entry): T1 sequence (whole entry)
The experiment in a line: Inhibitory activity against FabH from Escherichia coli ANSI.

Experiment [8] deals with T7, Mycobacterial beta-ketoacyl-[acyl-carrier-protein] synthase III (Mycobacterium tuberculosis, UniProt P9WNG3).
T7 sequence (P9WNG3 whole entry): T4 sequence (whole entry)
The experiment in a line: Inhibitory activity against FabH from Mycobacterium tuberculosis H37Rv.

The target in experiment [9] is T8, 3-oxoacyl-[acyl-carrier-protein] synthase 1 (Escherichia coli K-12, UniProt P0A953).
T8 sequence (P0A953 whole entry): T5 sequence (whole entry)
Kind of experiment: Inhibitory activity against FabB from Escherichia coli ANSI.

Take `C/C=C/CC1(C)SC(O)=C(C)C1=O` (centres undefined): the MIC (in experiment [1]; against Escherichia coli) was > 1000 µM each time. Besides, the inhibition entry in experiment [2], in experiment [3], in experiment [4], in experiment [5] and in [6] was “inactive” throughout.

As for `CCC(CC)CC1(C)SC(O)=C(C)C1=O` (centres undefined), the minimum inhibitory concentration (MIC) (commonly the lowest concentration that inhibits growth of the organism) in [1] is 1000 µM (≈ 228 µg/mL); in the experiment on Escherichia coli, > 1000 µM. In addition, the inhibition entry in [2], in experiment [3], in experiment [4], in [5] and in [6] was “inactive” each time.

In the case of `CC1=C(O)C(C)(C/C=C/c2ccccc2)SC1=O` (centres undefined), the MIC (in experiment [1]; in the experiment on Escherichia coli) was > 1000 µM in each case. Further, the inhibition result in experiment [2], in experiment [3], in [4], in [5] and in experiment [6] was “inactive” each time.

On to `CCCCCCC1(C)SC(O)=C(C)C1=O` (centres undefined), for which the MIC in [1] is 1000 µM (≈ 228 µg/mL); with Escherichia coli, > 1000 µM. In addition, the inhibition entry in experiment [2], in experiment [3], in experiment [4], in experiment [5] and in experiment [6] was “inactive” throughout.

In the case of `C=CC(C)CC1(C)SC(O)=C(C)C1=O` (centres undefined), the MIC (in [1]; in the experiment with Escherichia coli) was > 1000 µM each time. For the same compound, the inhibition result in experiment [2], in [3], in experiment [4], in experiment [5] and in experiment [6] was “inactive” in each case.

Turning to `CC1=C(O)SC(C)C1=O` (centres undefined) [THIOLACTONE], the MIC (in [1]; with Escherichia coli) was > 1000 µM each time. Besides, the inhibition entry in experiment [2], in experiment [3], in experiment [4], in experiment [5] and in [6] was “inactive” in each case.

For the compound `CCCCCCCCCCCCC1(C)SC(O)=C(C)C1=O` (centres undefined), the IC50 (in general, the concentration that gives 50% inhibition) stood at 100 µM in experiment [7] and 50 µM in experiment [8]. In addition, the figures for the MIC (in experiment [1]; in the experiment with Escherichia coli) were 1000 µM (≈ 313 µg/mL) and 25 µM (≈ 7.81 µg/mL), respectively. For the same compound, the inhibition result in [3], in experiment [4] and in [6] was “inactive” throughout.

Compound `CC(C)=CCC/C(C)=C/CC1(C)SC(O)=C(C)C1=O` (centres undefined) came in with an IC50 in experiment [7] of 100 µM. Moreover, the MIC (in experiment [1]; against Escherichia coli) was > 1000 µM throughout. The inhibition result in [3], in [4], in experiment [5] and in experiment [6] was “inactive” throughout.

On to `CCCCCCCCCCCCCC1(C)SC(O)=C(C)C1=O` (centres undefined), for which the IC50 was 100 µM in experiment [7], 80 µM in experiment [8] and > 100 µM in experiment [9]. The minimal inhibitory concentration (MIC) in experiment [1] is 500 µM (≈ 163 µg/mL); in the experiment with Escherichia coli, > 200 µM. The inhibition entry in experiment [3] and in [4] was “inactive” each time. Besides, the inhibition (commonly the drop in the measured response relative to a control, in per cent) in [6] was < 30%.

Regarding `CCCCCCCCCCCCCCC1(C)SC(O)=C(C)C1=O` (centres undefined), the IC50 was 100 µM in experiment [7], 80 µM in [8] and > 100 µM in [9]. The MIC was 1000 µM (≈ 341 µg/mL) in [1] and 200 µM (≈ 68.1 µg/mL) in the experiment with Escherichia coli. Also, the inhibition entry in [3] and in experiment [4] was “inactive” in each case. In [6], the inhibition was < 30%.

As for `CC1=C(O)SC(C)(C(C)C)C1=O` (centres undefined), the MIC (in experiment [1]; in the experiment with Escherichia coli) was > 1000 µM each time. Further, the inhibition result in [2], in experiment [3], in experiment [4], in experiment [5] and in experiment [6] was “inactive” throughout.

For `C=CCC1(C)SC(=O)C(C)=C1O` (centres undefined), the MIC (in experiment [1]; in the experiment with Escherichia coli) was > 1000 µM throughout. In addition, the inhibition result in experiment [2], in [3], in [4], in experiment [5] and in experiment [6] was “inactive” in each case.

`C=C(C)CC1(C)SC(O)=C(C)C1=O` (centres undefined): the minimum inhibitory concentration (MIC) (in experiment [1]; against Escherichia coli) was > 1000 µM in each case. The inhibition entry in [2], in experiment [3], in experiment [4], in experiment [5] and in experiment [6] was “inactive” each time.

For `CC1=C(O)C(C)(Cc2ccccc2)SC1=O` (centres undefined), the MIC (in experiment [1]; against Escherichia coli) was > 1000 µM throughout. Moreover, the inhibition result in [2], in experiment [3], in experiment [4], in [5] and in experiment [6] was “inactive” each time.

On to `CCCCCC1(C)SC(O)=C(C)C1=O` (centres undefined), for which the minimum inhibitory concentration (MIC) was 500 µM (≈ 107 µg/mL) in experiment [1] and > 1000 µM against Escherichia coli. Besides, the inhibition entry in [2], in experiment [3], in [4], in experiment [5] and in [6] was “inactive” in each case.

As to `CCCCCCCCCCC1(C)SC(O)=C(C)C1=O` (centres undefined), the results for the IC50 in [7] and in [8] were 100 µM and > 100 µM, respectively. Further, the minimum inhibitory concentration (MIC) in [1] was found to be 500 µM (≈ 142 µg/mL); against Escherichia coli, 100 µM (≈ 28.4 µg/mL). The inhibition entry in [3], in experiment [4] and in [6] was “inactive” throughout. Moreover, the inhibition in experiment [5] was < 30%.

As for `CC1=C(O)SC(C)(CC(C)C)C1=O` (centres undefined), the MIC (in [1]; against Escherichia coli) was > 1000 µM each time. For the same compound, the inhibition entry in [2], in experiment [3], in experiment [4], in [5] and in experiment [6] was “inactive” throughout.

For `CC1=C(O)C(C)(C2CCCC2)SC1=O` (centres undefined), the MIC (in experiment [1]; with Escherichia coli) was > 1000 µM throughout. Also, the inhibition entry in [2], in [3], in experiment [4], in experiment [5] and in experiment [6] was “inactive” throughout.
